Read-outs that look alike come from different tables or passages of the source.
Assays:
[1] = target: T1, recombinant hCaV3.1 channels (Homo sapiens, UniProt O43497); test: Whole-cell patch-clamp (QPatch), CaV3.1; assay type: cell-based; settings: for IC50: whole-cell current, holding potential −90 mV, n = 3–5
T1 construct: host or cells: probably the CHO cell line expressing CaV3.1 (inferred: transient HEK293T cells are assigned to FLIPR only)
Method: (§1) The human embryonic kidney 293 (HEK 293) cell lines (from Emmanuel Bourinet, Montpellier, France) stably expressing CaV3.2 or CaV3.3 were cultured under 5% carbon dioxide at 37 °C in Dulbecco’s Modified Eagle Medium (DMEM) Glutamax (Gibco, Life Technologies, Carlsbad, CA, USA) supplemented with 10% (v/v) fetal bovine serum (FBS), 100 U/mL penicillin, 100 μg/mL streptomycin (Gibco, Life Technologies, Carlsbad, CA, USA), and 750 μg/mL geneticin (G418) (Gibco, Life Technologies). The Chinese Hamster Ovary (CHO) cell lines (Emmanuel Bourinet, Montpellier, France) expressing CaV3.1 were cultured under 5% carbon dioxide at 37 °C in Alpha Minimum Essential Media (MEM) Glutamax (Gibco, Life Technologies), supplemented with 10% (v/v) fetal bovine serum (FBS) and 300 μg/mL geneticin (G418) (Gibco, Life Technologies). The human neuroblastoma SH-SY5Y cells (Victor Diaz, Goettingen, Germany) were cultured under 5% carbon dioxide at 37 °C in RPMI 1640 antibiotic-free medium (Invitrogen, Carlsbad, CA, USA), supplemented with 15% FBS and 2 mM GlutaMAX™ (Invitrogen). D-PBS (Gibco, Life Technologies) was used to wash the cells, and 0.25% Trypsin-EDTA (Gibco, Life Technologies) was used to detach cells from the flask surface. They were split in a ratio of 1:5 (ideally 1000 cells/cm^2) when they reached 70–80% confluence (every 2–3 days). Transiently transfected CaV3.1 HEK293 T cells were used in FLIPR Assays. HEK 293 T cells were cultured under 5% carbon dioxide at 37 °C in DMEM supplemented with 10% (v/v) FBS. D-PBS was used to wash the cells, and 0.25% Trypsin-EDTA was used to detach cells from the flask surface. The cells were split and seeded at 6 million cells per T175 flask, to reach 70–80% confluence after 24 h. The next day, 12 μg DNA of human CaV3.1 was incubated in 900 μL serum-free DMEM with 36 μL FuGENE HD transfection reagent (Promega Corporation, Madison, WI, USA) (1:3 DNA/Fugene ratio) for 20 min, and then the mixture was added into the cell flask slowly, drop by drop. After the transfection, the cells were cultured under 5% carbon dioxide at 37 °C for 24 h and then moved to a 28 °C incubator.
Whole-cell patch-clamp experiments were performed on an automated electrophysiology platform QPatch 16 X (Sophion Bioscience A/S, Ballerup, Denmark) in single-hole configuration using 16-channel planar patch chip QPlates (Sophion Bioscience A/S). The extracellular recording solution contained, in mM: TEACl 157, MgCl2 0.5, CaCl2 5, and HEPES 10; pH 7.4 adjusted with TEAOH; and osmolarity 320 mOsm. The intracellular pipette solution contained, in mM: CsF 140, EGTA 1, HEPES 10, and NaCl 10; pH 7.2 adjusted with CsOH; and osmolarity 325 mOsm. Compounds were diluted in extracellular recording solution with 0.1% BSA at the concentrations stated (DMSO ≤ 0.1%), and the effects of compounds were compared to the control (extracellular solution with 0.1% BSA) parameters within the same cell. Compounds’ incubation time varied from two (for the highest concentration) to five (for the lowest concentration) minutes by applying the voltage protocol 10–30 times at 10 s intervals to ensure steady-state inhibition was achieved. The effects of compounds were obtained using 200 ms voltage steps to peak potential from a holding potential of −90 mV. Current–voltage (I–V) relationships were obtained by holding the cells at a potential of −100 mV before applying 50 ms pulses to potentials from −75 to +50 mV every 5 s in 5 mV increments. […]

[2] = target: CaV3.2 (Homo sapiens, UniProt O95180); test: T-type calcium channel window current FLIPR assay, CaV3.2; assay type: cell-based
Method: as §1
HEK 293 cells stably expressing CaV3.2 or CaV3.3 were seeded into 384-well black wall clear bottom plates (Corning) at a density of 30,000 cells per well. Transiently transfected CaV3.1HEK293 T cells were seeded into 384-well black wall clear bottom plates at a density of 60,000 cells per well. Once the cells reached 90–95% confluence after 24 h, the media were removed from the wells and replaced with 20 μL of 10% calcium 4 dye (Molecular Devices, Sunnyvale, CA, USA) in HBSS-HEPES (containing 5 mM KCl, 10 mM HEPES, 140 mM NaCl, 10 mM glucose, and 0.5 mM CaCl2, pH 7.4) with 0.1% bovine serum albumin (BSA). The cells were incubated for 30 min at 37 °C in the presence of 5% carbon dioxide. Each well on the reagent plates for the first addition contained 15 μL different concentrations of compounds dissolved in HBSS-HEPES containing 0.1% BSA and <0.5% DMSO and was incubated for 20 min after loaded. Positive and negative controls contained 15 μL of HBSS-HEPES (0.1% BSA) alone. The plates were placed in the FLIPR^TETRA (Molecular Devices, Sunnyvale, CA, USA) programmed to measure maximum fluorescence intensity following a second addition of the agonist 5 mM CaCl2. The fluorescence readings were recorded and converted as described previously, and HBSS-HEPES (0.1% BSA) was used in the second addition as a negative control.

[3] = FLIPR window current, n = 3, read-out: IC50 CaV3.2 (LVA CaVs)
[4] = FLIPR, one separate experiment in quadruplicate (n = 4), read-out: IC50 of representative concentration-response curve, CaV3.2 window current

T1 sequence (O43497 whole entry): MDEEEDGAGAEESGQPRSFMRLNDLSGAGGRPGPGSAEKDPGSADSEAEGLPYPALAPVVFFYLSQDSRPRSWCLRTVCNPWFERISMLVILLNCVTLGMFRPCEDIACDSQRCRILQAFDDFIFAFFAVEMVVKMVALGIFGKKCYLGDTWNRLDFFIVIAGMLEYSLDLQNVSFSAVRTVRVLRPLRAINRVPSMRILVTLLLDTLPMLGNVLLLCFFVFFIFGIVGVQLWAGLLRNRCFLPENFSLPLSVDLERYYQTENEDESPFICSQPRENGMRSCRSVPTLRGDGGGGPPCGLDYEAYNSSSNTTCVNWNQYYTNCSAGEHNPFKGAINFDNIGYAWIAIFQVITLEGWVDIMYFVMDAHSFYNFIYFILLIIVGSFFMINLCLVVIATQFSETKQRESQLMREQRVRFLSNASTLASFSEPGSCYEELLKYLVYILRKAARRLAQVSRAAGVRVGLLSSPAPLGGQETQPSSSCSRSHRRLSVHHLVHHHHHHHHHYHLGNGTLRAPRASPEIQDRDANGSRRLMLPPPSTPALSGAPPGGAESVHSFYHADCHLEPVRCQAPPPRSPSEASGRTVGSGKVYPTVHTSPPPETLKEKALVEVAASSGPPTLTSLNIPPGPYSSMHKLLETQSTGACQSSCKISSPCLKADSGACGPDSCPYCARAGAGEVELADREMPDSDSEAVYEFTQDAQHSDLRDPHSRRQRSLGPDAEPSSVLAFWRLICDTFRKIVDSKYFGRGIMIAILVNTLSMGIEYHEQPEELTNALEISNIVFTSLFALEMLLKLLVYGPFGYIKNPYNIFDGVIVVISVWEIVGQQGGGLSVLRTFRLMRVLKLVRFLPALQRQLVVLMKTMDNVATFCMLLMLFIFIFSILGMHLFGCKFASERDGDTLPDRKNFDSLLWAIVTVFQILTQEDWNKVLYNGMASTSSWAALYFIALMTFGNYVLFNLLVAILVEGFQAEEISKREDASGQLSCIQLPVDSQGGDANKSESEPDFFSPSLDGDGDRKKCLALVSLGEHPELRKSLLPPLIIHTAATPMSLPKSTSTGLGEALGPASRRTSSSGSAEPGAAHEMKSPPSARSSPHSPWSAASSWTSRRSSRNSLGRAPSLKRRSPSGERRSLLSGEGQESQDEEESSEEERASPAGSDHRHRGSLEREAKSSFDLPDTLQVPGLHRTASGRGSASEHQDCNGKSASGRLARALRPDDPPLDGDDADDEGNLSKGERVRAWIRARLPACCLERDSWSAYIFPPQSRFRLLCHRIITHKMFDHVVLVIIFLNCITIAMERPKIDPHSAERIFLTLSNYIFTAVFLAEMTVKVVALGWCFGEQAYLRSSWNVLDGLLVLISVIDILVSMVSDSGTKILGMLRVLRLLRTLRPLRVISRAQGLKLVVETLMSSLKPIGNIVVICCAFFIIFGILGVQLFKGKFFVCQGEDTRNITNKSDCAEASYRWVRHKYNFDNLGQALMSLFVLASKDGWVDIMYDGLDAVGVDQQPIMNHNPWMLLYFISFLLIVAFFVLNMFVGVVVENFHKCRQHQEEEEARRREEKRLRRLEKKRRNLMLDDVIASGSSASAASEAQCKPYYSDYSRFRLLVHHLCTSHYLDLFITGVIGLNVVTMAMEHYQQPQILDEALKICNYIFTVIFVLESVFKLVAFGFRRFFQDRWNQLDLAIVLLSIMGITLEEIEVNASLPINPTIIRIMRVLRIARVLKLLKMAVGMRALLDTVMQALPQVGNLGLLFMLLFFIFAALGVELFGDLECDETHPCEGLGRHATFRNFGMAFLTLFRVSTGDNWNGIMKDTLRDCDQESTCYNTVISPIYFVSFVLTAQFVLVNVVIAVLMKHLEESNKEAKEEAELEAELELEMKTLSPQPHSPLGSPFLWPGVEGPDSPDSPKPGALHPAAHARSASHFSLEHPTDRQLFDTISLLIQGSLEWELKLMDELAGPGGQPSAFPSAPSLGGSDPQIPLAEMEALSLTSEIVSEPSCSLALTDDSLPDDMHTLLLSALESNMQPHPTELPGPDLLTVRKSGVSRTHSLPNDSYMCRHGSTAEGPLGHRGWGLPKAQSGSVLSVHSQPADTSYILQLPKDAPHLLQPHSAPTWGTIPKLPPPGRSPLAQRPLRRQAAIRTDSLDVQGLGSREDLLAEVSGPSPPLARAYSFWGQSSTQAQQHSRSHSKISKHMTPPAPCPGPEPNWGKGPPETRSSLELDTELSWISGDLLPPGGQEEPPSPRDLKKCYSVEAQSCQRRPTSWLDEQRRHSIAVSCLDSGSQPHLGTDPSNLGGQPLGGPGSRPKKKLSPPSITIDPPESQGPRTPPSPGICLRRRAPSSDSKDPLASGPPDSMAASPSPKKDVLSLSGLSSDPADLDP
CaV3.2, sequence (O95180 whole entry): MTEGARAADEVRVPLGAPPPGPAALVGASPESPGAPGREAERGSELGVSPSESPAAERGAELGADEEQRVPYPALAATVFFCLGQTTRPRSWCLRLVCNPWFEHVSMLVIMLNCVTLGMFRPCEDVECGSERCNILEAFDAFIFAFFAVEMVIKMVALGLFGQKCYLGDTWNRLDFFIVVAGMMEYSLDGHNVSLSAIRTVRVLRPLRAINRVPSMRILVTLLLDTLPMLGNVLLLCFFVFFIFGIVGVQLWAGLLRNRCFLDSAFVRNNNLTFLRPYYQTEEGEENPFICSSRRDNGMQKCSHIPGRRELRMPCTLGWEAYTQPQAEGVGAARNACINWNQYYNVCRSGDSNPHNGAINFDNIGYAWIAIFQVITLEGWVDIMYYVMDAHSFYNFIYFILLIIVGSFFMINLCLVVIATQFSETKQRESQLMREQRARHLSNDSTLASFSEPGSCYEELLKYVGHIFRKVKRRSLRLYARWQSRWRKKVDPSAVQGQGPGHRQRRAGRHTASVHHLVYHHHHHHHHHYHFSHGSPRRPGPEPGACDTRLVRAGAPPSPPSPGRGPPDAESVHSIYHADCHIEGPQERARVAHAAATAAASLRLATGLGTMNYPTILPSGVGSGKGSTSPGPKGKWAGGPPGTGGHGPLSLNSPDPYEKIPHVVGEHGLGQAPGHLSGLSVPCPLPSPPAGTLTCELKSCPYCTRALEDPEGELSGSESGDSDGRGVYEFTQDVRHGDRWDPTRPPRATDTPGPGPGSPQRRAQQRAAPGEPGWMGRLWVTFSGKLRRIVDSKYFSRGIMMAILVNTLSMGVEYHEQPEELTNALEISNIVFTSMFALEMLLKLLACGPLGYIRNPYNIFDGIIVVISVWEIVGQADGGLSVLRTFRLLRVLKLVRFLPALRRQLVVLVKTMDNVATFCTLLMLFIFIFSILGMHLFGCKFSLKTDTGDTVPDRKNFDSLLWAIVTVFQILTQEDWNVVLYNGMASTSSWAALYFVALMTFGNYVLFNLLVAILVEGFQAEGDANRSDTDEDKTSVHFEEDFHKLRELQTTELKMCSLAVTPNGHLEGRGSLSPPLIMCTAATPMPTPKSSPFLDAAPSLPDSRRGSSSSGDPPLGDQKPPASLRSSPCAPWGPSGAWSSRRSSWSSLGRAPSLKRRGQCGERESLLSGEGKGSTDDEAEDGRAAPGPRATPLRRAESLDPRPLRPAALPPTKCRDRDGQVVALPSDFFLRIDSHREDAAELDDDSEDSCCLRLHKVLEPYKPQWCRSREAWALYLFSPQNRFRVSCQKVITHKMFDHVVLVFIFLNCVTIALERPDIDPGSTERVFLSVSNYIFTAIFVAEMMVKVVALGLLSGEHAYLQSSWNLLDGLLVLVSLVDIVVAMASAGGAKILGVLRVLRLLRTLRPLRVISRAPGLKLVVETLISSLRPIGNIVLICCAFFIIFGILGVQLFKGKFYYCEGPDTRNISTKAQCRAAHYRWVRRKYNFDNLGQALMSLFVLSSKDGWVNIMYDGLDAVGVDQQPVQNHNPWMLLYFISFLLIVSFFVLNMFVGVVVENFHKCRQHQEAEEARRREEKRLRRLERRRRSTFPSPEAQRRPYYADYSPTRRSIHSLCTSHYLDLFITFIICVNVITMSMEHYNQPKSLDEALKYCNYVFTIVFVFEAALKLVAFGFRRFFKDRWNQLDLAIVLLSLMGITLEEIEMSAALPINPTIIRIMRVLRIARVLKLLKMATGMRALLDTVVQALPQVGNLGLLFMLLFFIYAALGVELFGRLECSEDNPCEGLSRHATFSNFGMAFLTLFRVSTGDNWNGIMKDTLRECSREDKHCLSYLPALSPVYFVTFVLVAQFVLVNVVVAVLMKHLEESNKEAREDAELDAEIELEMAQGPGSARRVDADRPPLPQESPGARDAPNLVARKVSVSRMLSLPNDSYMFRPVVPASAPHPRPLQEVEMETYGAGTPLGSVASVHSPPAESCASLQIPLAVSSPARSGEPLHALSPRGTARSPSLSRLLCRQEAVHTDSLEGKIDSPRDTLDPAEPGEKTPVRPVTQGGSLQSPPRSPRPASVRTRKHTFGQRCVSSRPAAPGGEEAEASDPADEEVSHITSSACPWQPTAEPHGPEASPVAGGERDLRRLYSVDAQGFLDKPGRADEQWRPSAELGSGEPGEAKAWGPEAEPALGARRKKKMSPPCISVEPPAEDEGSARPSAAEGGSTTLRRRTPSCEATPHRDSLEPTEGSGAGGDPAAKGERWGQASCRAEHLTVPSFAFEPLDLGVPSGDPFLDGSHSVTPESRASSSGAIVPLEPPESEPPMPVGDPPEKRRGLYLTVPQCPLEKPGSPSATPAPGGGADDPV

| effect of low concentrations on CaV3.1 channel current ([1]; QPatch, 49 nM–3.1 µM) | shift in the I–V relationship of CaV3.1 ([1]; QPatch, 2.5 µM and 15 µM) | IC50 [1] | IC50 [2, 3] | IC50 [2, 4] | reduced potency for CaV3.2 window current compared to DIM ([2]; FLIPR) | Compound | IC50 ([2]; IC50 CaV3.2 (LVA CaVs), FLIPR window current, n = 3) | IC50 ([2]; IC50 of representative concentration-response curve, CaV3.2 window current, FLIPR, one separate experiment in quadruplicate (n = 4)) |
| --- | --- | --- | --- | --- | --- | --- | --- | --- |
| weakly enhanced | not accompanied by shifts | 8.32 ± 1.53 µM | 52.2 ± 3.8 µM | 54.7 µM | – | c1ccc2c(Cc3c[nH]c4ccccc34)c[nH]c2c1 [DIM, 3,3′-diindolylmethane, reference compound] | – | – |
| – | – | – | 57.3 ± 3.38 µM | – | – | O=C(c1c[nH]c2cc(Br)ccc12)c1c[nH]c2cc(Br)ccc12 [IV] | – | – |
| – | – | 1.53 µM | 73.9 ± 2.48 µM | 74 µM | ~ 1.4 fold | O=C(c1c[nH]c2ccccc12)c1c[nH]c2ccccc12 [DIM-one, 3,3′-diindolylmethanone] | – | – |

| Compound | effect of low concentrations on CaV3.1 channel current ([1]; QPatch, 49 nM–3.1 µM) | shift in the I–V relationship of CaV3.1 ([1]; QPatch, 2.5 µM and 15 µM) | IC50 [1] | IC50 [2, 3] | IC50 [2, 4] | reduced potency for CaV3.2 window current compared to DIM ([2]; FLIPR) | IC50 ([2]; IC50 CaV3.2 (LVA CaVs), FLIPR window current, n = 3) | IC50 ([2]; IC50 of representative concentration-response curve, CaV3.2 window current, FLIPR, one separate experiment in quadruplicate (n = 4)) |
| --- | --- | --- | --- | --- | --- | --- | --- | --- |
| O=C(c1cn(Cc2ccccc2)c2ccccc12)c1cn(Cc2ccccc2)c2ccccc12 [IX, bis(1-benzyl-1H-indol-3-yl)methanone] | – | – | 47.4 ± 11.7 µM | – | – | – | 3.05 ± 0.51 µM | 3.28 µM |

— publication PMC9412534, “Diindolylmethane Derivatives: New Selective Blockers for T-Type Calcium Channels” (Membranes, 2022)
